The values below come from patent publication US20040265265A1, “Odor control composition and process” (H&S CHEMICAL COMPANY, INC., priority 2001, published 2004).

The nature of data set [1]: stability of solutions as a function of pH. In kind it is physicochemical. Conditions: below a pH of 6. An excerpt: As is discussed above the pH range for CHT and CH-BENZ solutions for use in this invention can be from about 6- 14. […] While the solutions of this invention are effective above a pH of 10.0, solutions having a pH of 10.0 can only be used for industrial applications, due to their caustic nature.
This stability is important in domestic applications of this invention where long shelf life is very desirable.

Data set [2] is described as follows: limit of solubility in water. Conditions: at room temperature in water.

With `O=C([O-])c1ccc(S(=O)(=O)NCl)cc1.[Na+]` [CH-BENZ, N-Chloro-4-Carboxybenzenesulfonamide sodium salt], the “stability in acidic medium” value in data set [1] is listed as “tend to decompose”. For the same compound, the limit of solubility result in data set [2] is listed as “about 20%”.

Take `Cc1ccc(S(=O)(=O)[N-]Cl)cc1.[Na+]` [CHT, Chloramine-T]: the “stability in acidic medium” value in data set [1] was “tend to decompose”. In data set [2], the limit of solubility result was “about 15%”.
